What was measured:
Format in all cases: physicochemical
[1] = Stability in SGF (Simulated Gastric Fluid), ester content by UPLC; conditions: SGF pH 1.2, 10 mg/mL in ACN diluted to 0.5 mg/mL
Description: (§1) The diluted solution was then analyzed for ester content by UPLC.
(§2) The same set of experiments were performed for the pinacol and pinanediol esters of Boronic Acid 1 except that additional ACN was added when diluting into SIF in order to maintain the compounds in solution (final ACN concentration of 20%-30% in diluted solutions in SIF).

[2] = Open dish stability study at 40° C./75% RH in open glass vials; conditions: for % Peak Area by UPLC, 2 weeks / % Peak Area by UPLC, Initial: 40° C./75% RH open; for Open dish stability, result in words: 40° C./75% RH, open glass vials
[3] = Stability in SIF (Simulated Intestinal Fluid), ester content by UPLC; conditions: SIF pH 6.8, 10 mg/mL in ACN diluted to 0.5 mg/mL, pinacol and pinanediol esters with 20%-30% final ACN
Description: as §1, §2

| % Peak Area by UPLC, 2 weeks [2] | % Peak Area by UPLC, Initial [2] | Open dish stability, result in words [2] | Compound | Conversion of ester to Boronic Acid 1 in SGF [1] | Conversion of ester to Boronic Acid 1 in SIF [3] |
| --- | --- | --- | --- | --- | --- |
| 90.6% | 93.5% | significantly degraded after two weeks | C[C@@H]1CN(C(C)(C)/C=C(\C#N)C(=O)N2CCCC[C@@H](OC(=O)N[C@@H](Cc3ccccc3)B3O[C@@H]4C[C@@H]5C[C@@H](C5(C)C)[C@]4(C)O3)C2)CCO1 [Pinanediol ester of Boronic Acid 1] | only partially converted to Boronic Acid 1 | only partially converted to Boronic Acid 1 |
| 85.9% | 95.8% | significantly degraded after two weeks | C[C@@H]1CN(C(C)(C)/C=C(\C#N)C(=O)N2CCCC[C@@H](OC(=O)N[C@@H](Cc3ccccc3)B(O)O)C2)CCO1 [Boronic Acid 1, ((R)-1-(((((R)-1-((E)-2-cyano-4-methyl-4-((R)-2-methylmorpholino)pent-2-enoyl)azepan-3-yl)oxy)carbonyl)amino)-2-phenylethyl)boronic acid] | – | – |
| 70.9% | 95.5% | significantly degraded after two weeks | C[C@@H]1CN(C(C)(C)C=C(C#N)C(=O)N2CCCC[C@@H](OC(=O)N[C@@H](Cc3ccccc3)B3OC(C)(C)C(C)(C)O3)C2)CCO1 [Pinacol ester of Boronic Acid 1, (R)-1-(2-cyano-4-methyl-4-((R)-2-methylmorpholino)pent-2-enoyl)azepan-3-yl ((R)-2-phenyl-1-(4,4,5,5-tetramethyl-1,3,2-dioxaborolan-2-yl)ethyl)carbamate] | completely converted to Boronic Acid 1 immediately | completely converted to Boronic Acid 1 immediately |

Reference: patent publication US20260265274A1, “Cyclic Boronic Esters and Their Uses” (Principia Biopharma Inc., priority 2022, published 2026)
